A short description of data set [1]: Functional metabolic assay to measure dose dependent changes in cell viability from drug treatment in HeLa-ACE2 cells. Hela-ACE2 cells are seeded prior to drug treatment, then incubated in MTT (3-[4,5-dimethylthiazol-2-yl]-2,5- diphenyltetrazolium bromide) labelling reagent and SDS. Absorbance is measured at 560 and 750 nm and analyzed by Gen5 software. The assay has been performed by Icahn School of Medicine at Mount Sinai. The data set is classed as toxicity, cell-based. The note with it: human.

A short description of data set [2]: Functional metabolic assay to measure dose dependent changes in cell viability from drug treatment in Vero E6/TMPRSS2 cells (cotreated with P-gp inhibitor, Elacridar). Cells are treated with antiviral candidates that have been serially diluted. Cytotoxicity is reported via measuring absorbance and analysis of MTT/MTS assays in uninfected cells. The assay has been performed by Icahn School of Medicine at Mount Sinai. The data set is classed as toxicity, cell-based, VeroE6/TMPRSS2. The note with it: chlorocebus sabaeus.

The nature of data set [3]: Functional metabolic assay to measure dose dependent changes in cell viability from drug treatment in iPSC-Pneumocyte cells. The cells are seeded then incubated in MTT (3-[4,5-dimethylthiazol-2-yl]-2,5- diphenyltetrazolium bromide) labeling reagent and SDS. Absorbance is measured at 560 and 750 nm and analyzed by Gen5 software. The assay has been performed by Icahn School of Medicine at Mount Sinai. It counts as toxicity, cell-based. The note with it: human; for CC50: iPSC-Pneumocyte cells; for CC10: pneumocyte.

The subject of data set [4] is Middle East respiratory syndrome-related coronavirus. The experiment in a line: microbe, parasite or virus in culture. The data set is classed as functional, Chlorocebus sabaeus. The note with it: Vero 76.
[5] abbreviates: Vero E6/TMPRSS2 cells, with Elacridar (P-gp inhibitor), concentration not stated.

Where “and” joins values, the source holds several entries; their conditions need not be identical. Equal entries are not always repeated.

From ChEMBL document CHEMBL5441451, “ASAP - In vitro cytotoxicity” (2024) come the findings set out here.

As to `Cc1nn(C)cc1-c1cc2c(N[C@H](c3ccc4c(c3)S(=O)(=O)CCC4)C(C)C)ncnc2[nH]1`, the values for the CC50 in data set [1] (HeLa-ACE2 cells) and in data set [2] (setting [5]) were above 20 µM and above 5 µM, respectively. The CC10 in data set [1] (hela-ace2) is above 20 µM; in data set [2] (veroe6/tmprss2) it was above 5 µM.
In the case of `CC(C)[C@@H](Nc1ncnc2[nH]c(C(=O)N[C@@H]3CCN(C)C3)cc12)c1ccc2c(c1)S(=O)(=O)CCC2`, the CC50 is above 20 µM in data set [1] (HeLa-ACE2 cells), below 0.206 µM in data set [3] and above 5 µM in data set [2] (setting [5]). Besides, the CC10 in data set [1] (hela-ace2) is above 20 µM; in data set [3], below 0.206 µM; in data set [2] (veroe6/tmprss2), above 5 µM.
On to `COc1ccc([C@H](Cc2nnn[nH]2)NC(=O)c2ncnc3[nH]ccc23)cc1`, for which the CC50 was above 20 µM in data set [1] (HeLa-ACE2 cells) and above 5 µM in data set [2] (setting [5]). Further, the CC10 in data set [1] (hela-ace2) was above 20 µM; in data set [2] (veroe6/tmprss2), above 5 µM.
For `CNCc1cc(-c2cc3c(N[C@@H](c4ccc5c(c4)S(=O)(=O)CCC5)C(C)C)ncnc3[nH]2)co1`, the CC50 in data set [1] (HeLa-ACE2 cells) is above 20 µM; in data set [3] it was above 50 µM; in data set [2] (setting [5]) it was above 5 µM. The CC10 in data set [1] (hela-ace2) is above 20 µM; in data set [3], above 50 µM; in data set [2] (veroe6/tmprss2) it was above 5 µM.
On to `C[C@H](C(=O)O)[C@@H](NC(=O)c1ncnc2[nH]ccc12)c1ccc(Br)cc1`, for which the CC50 was above 20 µM in data set [1] (HeLa-ACE2 cells) and above 5 µM in data set [2] (setting [5]). The CC10 in data set [1] (hela-ace2) was above 20 µM; in data set [2] (veroe6/tmprss2) it was above 5 µM.
Regarding `CNC(=O)Cn1cc(-c2cc3c(N[C@@H](c4ccc5c(c4)S(=O)(=O)CCC5)C(C)C)ncnc3[nH]2)cn1`, the values for the CC50 in data set [1] (HeLa-ACE2 cells), in data set [3] and in data set [2] (setting [5]) were above 20 µM, 1.7 µM and above 5 µM, respectively. Besides, the CC10 in data set [1] (hela-ace2) is above 20 µM; in data set [3], 1.528 µM; in data set [2] (veroe6/tmprss2), above 5 µM.
Turning to `CC(C)[C@@H](Nc1ncnc2[nH]c(-c3cnn(C)c3C#N)cc12)c1ccc2c(n1)OCCO2`, the CC10 in data set [1] (hela-ace2) was > 50 µM and > 20 µM; in data set [3] it was 5.176 µM; in data set [2] (veroe6/tmprss2) it was above 5 µM. In addition, the CC50 is above 50 µM in data set [1] (hela-ace2), 6.02 µM in data set [3] and above 5 µM in data set [2] (setting [5]).
For the compound `CC(C)[C@H](Nc1ncnc2[nH]c(-c3cnn(C)c3C#N)cc12)c1ccc2c(n1)OCCO2`, the CC50 in data set [1] (HeLa-ACE2 cells) is above 20 µM; in data set [1] (hela-ace2) it was 12.5 µM; in data set [2] (setting [5]), above 5 µM. For the same compound, the CC10 in data set [1] (hela-ace2) was > 20 µM and > 50 µM; in data set [2] (veroe6/tmprss2), above 5 µM.
For the compound `CC(C)[C@H](Nc1ncnc2[nH]ccc12)c1ccc2c(c1)S(=O)(=O)CCC2`, the CC50 in data set [1] (HeLa-ACE2 cells) and in data set [2] (veroe6/tmprss2) was above 20 µM throughout. Further, in data set [1] (hela-ace2), the CC10 is above 20 µM.
As for `CNC(=O)c1c[nH]c2ncnc(N[C@H](c3ccc4c(c3)S(=O)(=O)CCC4)C(C)C)c12`, the CC50 in data set [1] (HeLa-ACE2 cells) was above 20 µM; in data set [3], above 50 µM; in data set [4], above 32 µM. For the same compound, the CC10 in data set [1] (hela-ace2) is above 20 µM; in data set [3], above 50 µM.
